Reference: patent US20260285870A1, “TRIAZOLOPYRIDAZINE DERIVATIVE, PREPARATION METHOD THEREFOR, PHARMACEUTICAL COMPOSITION THEREOF, AND USE THEREOF” (SHANGHAI SIMR BIOTECHNOLOGY CO., LTD., priority 2019, published 2026)

system: not listed separately; test: Rat liver microsome stability (RLM) experiment; assay type: in vitro ADME; conditions: pH 7.4; rat liver microsomes 0.5 mg protein/mL, NADPH, 37° C., 0-45 min
Description: Rat liver microsomes (Xenotech, item No. R1000, lot No. 1310030), 100 mM potassium phosphate buffer solution (pH 7.4), 10 mM magnesium chloride.
Compound preparation: 5 μL of compound DMSO mother liquor (10 mM) was added to 495 μL of methanol to obtain an intermediate solution with a compound concentration of 100 μM. Then 50 μL of the intermediate solution was taken and dissolved in 450 μL of potassium phosphate buffer solution to obtain a test solution with a final concentration of 10 μM.
NADPH regeneration system (concentration of isocitrate dehydrogenase 1 unit/mL).
Liver microsomes (final concentration 0.5 mg protein/mL).
Reaction termination solution: cold acetonitrile containing 100 ng/mL Tolbutamide and 100 ng/mL Labetalol as an internal standard.
• (1) Preparation of Buffer Solution: • Buffer solution A: 1.0 L of 0.1 M potassium phosphate buffer solution containing 1.0 mM EDTA • Buffer solution B: 1.0 L of 0.1 M dipotassium phosphate buffer solution containing 1.0 mM EDTA • Buffer solution C: 0.1 M potassium phosphate buffer, 1.0 mM EDTA, pH 7.4, titrated with 700 mL of buffer solution B and buffer solution A, monitored by pH meter. • (2) Preparation of Reference Substance (Ketanserin) and Concentration of Administration Solution of the Test Substance
5000 administration solution: […] 10 mM DMSO reference substance stock solution and test substance stock solution were added to 190 μL of ACN, respectively. 1.5 μM administration solution (containing 0.75 mg/mL liver microsomes): […] administration solution and 18.75 μL of 20 mg/mL liver microsomes were added to 479.75 μL of buffer C on a wet ice. • (3) NADPH was added to buffer solution C to obtain a NADPH stock solution (6 mM). • (4) 30 μL of 1.5 μM administration solution (containing 0.75 mg/mL of liver microsomes) was taken on the wet ice and added to the wells of the test plate at different time points (0-, 5-, 15-, 30-, 45-min), respectively. • (5) Firstly, 135 μL of ACN containing IS was added to the wells of a 0 min test plate, and then 15 µL of the NADPH stock solution (6 mM) was added. • (6) The test plate at other time points and the NADPH stock solution were pre-heated in a 37° C. water bath for 5 minutes. • (7) 15 μL of the NADPH stock solution (6 mM) was taken and added to a pre-incubated test plate, and the reaction was started and timed. • (8) At 5 min, 15 min, 30 min and 45 min, 135 µL of CAN containing IS was added to the corresponding test plate respectively, and the test was completed. • (9) Test plates were shaken with a shaker (IKA, MTS 2/4) for 10 min (600 rpm/min) and then centrifuged for 15 min (Thermo Multifuge×3R, 5594 g). • (10) 50 μL of supernatant from each well was added to a 96-well sample plate containing 50 μL of ultrapure water (Millipore, ZMQS50F01), and the samples were analyzed by LC/MS.

| microsomal CLint [µL/min/mg] | Structure (SMILES) |
| --- | --- |
| 143 | CCNC(=O)c1ccc(COc2nn3c(-c4cc(C)on4)nnc3cc2C(C)(C)C)nc1 [Compound 42 in CN107344936A, reference compound] |
| 0.3 | COc1cc2nnc(-c3cc(C)on3)n2nc1OCc1ccccn1 [Embodiment 33] |
| 11.4 | CCNC(=O)c1ccc(COc2nn3c(-c4cc(C)on4)nnc3cc2OC)nc1 [Embodiment 35] |
| 6 | COc1cc2nnc(-c3cc(C)on3)n2nc1OCc1ccc(C2(F)CN(C3COC3)C2)cn1 [Embodiment 128] |
| 14 | COCCCOc1ccc(COc2nn3c(-c4noc(C)n4)nnc3cc2OC)nn1 [Embodiment 129] |
| 1 | COCc1ccc(COc2nn3c(-c4cc(C)on4)nnc3cc2OC)nn1 [Embodiment 151] |
| 23 | COc1cc2nnc(-c3cc(C)on3)n2nc1OCc1ccc(OC2CCOCC2)nn1 [Embodiment 152] |
| 5 | COc1cc2nnc(-c3cc(C)on3)n2nc1OCc1ccc(OC2COC2)nn1 [Embodiment 153] |
| 1 | COc1cc2nnc(-c3cc(C)on3)n2nc1OCc1ccc(OC2CCOC2)nn1 (stereo not shown) [Embodiment 154] |
| 6 | COc1cc2nnc(-c3cc(C)on3)n2nc1OCc1ccc2c(n1)CN(C)C2 [Embodiment 160] |
| 5 | COc1cc2nnc(-c3cc(C)on3)n2nc1OCc1ccc2c(n1)CCN(C1CCOC1)C2 (stereo not shown) [Embodiment 183] |
| 9 | COc1cc2nnc(-c3cc(C)on3)n2nc1OCc1ccc2c(n1)CCN(C(CO)CO)C2 [Embodiment 185] |
| 22 | COc1cc2nnc(-c3cc(C)on3)n2nc1OCc1ccc2c(n1)CCN(C1CCOCC1)C2 [Embodiment 186] |
| 15 | COc1cc2nnc(-c3cc(C)on3)n2nc1OCc1ccc2c(n1)CCN(Cc1cc(C)on1)C2 [Embodiment 187] |
| 5 | COc1cc2nnc(-c3cc(C)on3)n2nc1OCc1ccc2nc(C#N)cn2n1 [Embodiment 211] |
| 10 | COCc1cn2nc(COc3nn4c(-c5cc(C)on5)nnc4cc3OC)ccc2n1 [Embodiment 213] |
| 10 | COc1cc2nnc(-c3cc(C)on3)n2nc1OCc1ccc2c(n1)CN(C1CCOCC1)C2 [Embodiment 253] |
| 33.6 | Cc1cc(-c2nnc3cc(C(C)(C)C)c(OCc4ccccn4)nn23)no1 [drawing 926, reference compound] |
| 28.2 | Cc1cc(-c2nnc3c4ccccc4c(OCc4ccccn4)nn23)no1 [α51A-II, reference compound] |

same assay, conditions: rat liver microsomes 0.5 mg protein/mL, NADPH, 37° C., 0-45 min

| RLM [µL/min/mg] | Structure (SMILES) |
| --- | --- |
| 0 | COc1cc2nnc(-c3cc(C)on3)n2nc1OCc1ccc2c(n1)CCN(C1COC1)C2 [Embodiment 84] |
| 0 | COCCOCc1ccc(COc2nn3c(-c4cc(C)on4)nnc3cc2OC)nn1 [Embodiment 166] |

system: not listed separately; test: Pharmacokinetic experiment on rats: maximum plasma drug concentration (Cmax); assay type: in vivo; conditions: rat, male SD rats, po, 10 mg/kg, 5% CMC-Na aqueous solution
Description: In the pharmacokinetic experiment on rats, the maximum plasma drug concentration (Cmax) was used to evaluate the absorption of the compounds in rats. All rats fasted overnight before administration; the test compounds were dissolved and administered orally (po) to male SD rats, with 3 rats in each group. After administration of the test compounds, blood was collected by jugular vein puncture at […] with about 0.25 mL per sample. The plasma drug concentration was determined by LC-MS/MS method, and the pharmacokinetic parameters were calculated by Phoenix WinNonlin7.0. The dosage was 10 mg/kg, and the vehicle was 5% CMC-Na aqueous solution.

| Cmax [ng/mL] | Structure (SMILES) |
| --- | --- |
| 1780 | COc1cc2nnc(-c3cc(C)on3)n2nc1OCc1ccccn1 [Embodiment 33] |
| 216 | Cc1cc(-c2nnc3cc(C(C)(C)C)c(OCc4ccccn4)nn23)no1 [drawing 930] |
| 25.7 | Cc1cc(-c2nnc3c4ccccc4c(OCc4ccccn4)nn23)no1 [α51A-II, reference compound] |

system: not listed separately; test: Pharmacokinetic experiment on rats: brain entry ratio (brain tissue/plasma concentration ratio); assay type: in vivo; conditions: male SD rats, po, 10 mg/kg, 0.5 hours
Description: The drug concentration ratio of plasma and brain tissue in the pharmacokinetic experiment on rats was used to evaluate the entry of compounds into brain. All rats fasted overnight before administration; the test compounds were dissolved and administered orally (po) to male SD rats, with 3 rats in each group. After administration of the test compounds, blood was collected by jugular vein puncture at 0.5 hours with about 0.25 mL per sample. The whole brain was taken at the same time. The plasma and brain tissue drug concentration were determined by LC-MS/MS method, and the pharmacokinetic parameters were calculated by Phoenix WinNonlin7.0. The dosage was 10 mg/kg, and the vehicle was 5% CMC-Na aqueous solution.

| Brain entry ratio [%] | Structure (SMILES) |
| --- | --- |
| 0 | COc1cc2nnc(-c3cc(C)on3)n2nc1OCc1ccc2c(n1)CCN(C(CO)CO)C2 [Embodiment 185] |

system: not listed separately; test: Water solubility observed during work-up; assay type: physicochemical; conditions: observation at extraction, pH=7
Description: Methyl 6-[7-methoxy-3-(5-methyl-isoxazol-3-yl)-[1,2,4]triazolo[4,3-b]pyridazin-6-yloxymethyl]-nicotinate (300 mg, 0.75 mmol), 1 M lithium hydroxide (1.5 mL, 1.5 mmol) were sequentially added to 10 mL of ethanol, and the mixture was stirred at room temperature for 1 hour. The mixture was added with 0.5 M hydrochloric acid to neutralize to pH=7, diluted with water, extracted with ethyl acetate. […] LC-MS: m/z [M+H]^+=383.

| water solubility | Structure (SMILES) |
| --- | --- |
| good water solubility | COc1cc2nnc(-c3cc(C)on3)n2nc1OCc1ccc(C(=O)O)cn1 [Embodiment 63] |

system: α5-GABAA receptor; test: not given; design: suppression of the current induced by GABA: dose or concentration left out as unconfirmed; conditions: GABA concentration increased further; cited from earlier work

| Structure (SMILES) | inhibitory effect on the current induced by GABA |
| --- | --- |
| CCOC(=O)c1ncn2c1[C@@H]1CCCN1C(=O)c1cc(OC)ccc1-2 [L-655,708] | no inhibitory effect |

same assay, conditions: highest concentration of L-655,708; cited from earlier work

| Structure (SMILES) | suppression of the current induced by GABA [%] |
| --- | --- |
| CCOC(=O)c1ncn2c1[C@@H]1CCCN1C(=O)c1cc(OC)ccc1-2 [L-655,708] | 15 |

same assay, conditions: low concentrations of GABA (5, 50 and 500 nM); cited from earlier work

| Structure (SMILES) | inhibition of the current induced by GABA |
| --- | --- |
| CCOC(=O)c1ncn2c1[C@@H]1CCCN1C(=O)c1cc(OC)ccc1-2 [L-655,708] | dose-dependently inhibited |

system: α5-GABAA receptor; test: not given; conditions: animal models; cited from earlier work

| Structure (SMILES) | therapeutic effects on cognition related diseases |
| --- | --- |
| Cc1cc(-c2nncc3c(C(C)(C)C)c(OCc4ncnn4C)nn23)no1 [MRK-016] | good therapeutic effects |
| Cc1cc(-c2nnc3c4ccccc4c(OCc4cn(C)nn4)nn23)no1 [α5IA] | good therapeutic effects |
